The results in this text go back to patent US20240157358A1, “BIOSENSING SYSTEM AND METHOD FOR IN-SITU DETERMINATION OF METASTASIS IN A SAMPLE” (City University of Hong Kong, priority 2022, published 2024).

For the experiment, the system named is C. elegans. In words: C. elegans chemotaxis assay in the microfluidic biosensor. The experiment is classed as in vivo, Caenorhabditis elegans. To be noted: for nematode chemotaxis score: single substance at lower concentrations, corresponding to metastatic cancer, heat maps FIGS. 7C and 7D; for CIPBS level (chemotaxis index relative to PBS): CI level of PBS buffer standards defined as 1, FIG. 3B.

Method: It was cultured in the OP50, a strain of Escherichia coli used to maintain C. elegans cultures, with nematode growth media (NGM) plate. Before each biosensing assay, the viability of C. elegans was assessed by probing with an inoculation needle.
All materials required for performing biosensing assay in the present biosensing system should be kept at room temperature before loading C. elegans into the biosensor to maintain their viability. Briefly, medium supernatants at −80° C. and biosensor initially stored in a 4° C. freezer were thawed at room temperature. Adult C. elegans were collected in 1.5 mL tubes and washed twice with phosphate-buffered saline (PBS) buffer (Gibco, Waltham, MA, USA) before assay. All clinical samples to be tested were transported at room temperature, and the biosensing assay should be completed within 4 hours from the time of collection. The clinical samples should be mixed well before loading, and about 1 ml of the sample was taken into a 1.5 ml tube for each biosensing assay. The remaining samples could be sealed and stored at −80° C. for further use.
During each biosensing assay, approximately 50-100 μl of PBS containing 100 C. elegans was gently pipetted into the middle of the second layer where the organism loading region is disposed without compromising the viability of C. elegans and disrupting the integrity of the NGM agar, thereby increasing the reliability of the biosensing assay results. Once the C. elegans were settled, the pressure pump was started immediately to flow the test samples, comparative sample and/or negative control to the corresponding bio-incubation chambers from the fluid inlets at the first layer and through different fluid channels to reach the second layer without damaging the NGM agar integrity. In certain embodiments, an optimal flow rate of the fluid applied to the biosensor is about 0.5 mL/min. […] By this optimal flow rate, all fluid channels can be primed in 1 min and about 10 to 100 μl droplets can be formed at each fluid outlet of the fluid channels. Because of that, the volume of the test samples applied in each fluid inlet at each round of biosensing assay can be less than 1 mL. […]
To standardize the quantitative readouts, a chemotaxis index (CI) relative to the CI measured from PBS (CIPBS) was derived by the following Equation:
The CIPBS level readouts were evaluated with the present biosensing system using a range of glutamate concentration levels that included concentrations detected from MCF-7 and MDA-MB-231 clusters (0.02 mg/ml, 0.04 mg/ml, 0.06 mg/ml, 0.08 mg/ml, and 0.1 mg/ml) (FIG. 3A). CI level readouts were modified for parallel comparison of all concentrations, with the CI level obtained from PBS buffer standards defined as 1.

On to `O=C(O)[C@@H]1CCCN1` [L-proline], for which the nematode chemotaxis score result is “around 6”.

Consider `N[C@@H](CCC(=O)O)C(=O)O` [glutamate], for which the “CIPBS level (chemotaxis index relative to PBS)” value (glutamate concentration 0.02 mg/ml) stood at 3.6±0.03 and the “CIPBS level (chemotaxis index relative to PBS)” value (glutamate concentration 0.1 mg/ml (highest tested)) stood at 1.1±0.04.

Turning to `NC(N)=O` [urea], the nematode chemotaxis score entry is reported as “around 6”.
